# Data from patent US6245917A, “Crystalline sodium phenytoin monohydrate” (Warner-Lambert Company, priority 1999, dated 2001).
# Experiments:
# Type in all cases: physicochemical
# [1] = DSC and TGA thermal analyses
# Description: Differential scanning calorimetry (DSC) experiments were performed on a Dupont DSC 2000 and thermogravimetric analyses (TGA) were performed on a Dupont TGA 2000. Nitrogen was used as the purge gas and heating rates were 10° C./minute. Standards were run prior to sample analyses; Sn for DSC and calcium oxalate for TGA.
# Both SPM and SPA were analyzed by x-ray powder diffraction (XRPD), infrared (IR) spectroscopy, solid-state nuclear magnetic resonance (SSNMR) spectroscopy, differential scanning calorimetry (DSC) and thermogravimetric analysis (TGA). The XRPD patterns of SPM and SPA are quite different and distinguishable. While the IR and SSNMR spectra of SPM and SPA are different, the differences are subtle. SPM and SPA behave quite differently on both DSC and TGA thermal analyses. SPA undergoes endothermic transitions at 364° C. and 409° C. that are accompanied by a weight loss of 72%.
# [2] = Weight change under controlled humidity conditions, first study (SPM made by the toluene slurry); details: for Percent change based on average of final two weights: monohydrate
# Description: Study of weight change under controlled humidity conditions, samples were placed in open vials, which were placed in closed controlled-humidity jars. Relative humidities were controlled using saturated aqueous salt solutions: 58% RH, NaBr; 75% RH, (NH4)2 SO4; 76%, sodium acetate; 84% RH, KBr. Water uptake/loss characteristics of SPM and SPA were compared. Samples were kept at ambient temperature under various relative humidities (RHs) and were periodically weighed. […] The fact that SPM loses significant mass under even high humidity conditions is inconsistent with the loss of only water.
# [3] = Repeated water uptake study with solvent-free SPM (dichloromethane preparation)
# Description: Study of weight change under controlled humidity conditions, samples were placed in open vials, which were placed in closed controlled-humidity jars. Relative humidities were controlled using saturated aqueous salt solutions: 58% RH, NaBr; 75% RH, (NH4)2 SO4; 76%, sodium acetate; 84% RH, KBr.
# A possible cause of the observed weight loss is that some reaction solvent (toluene in this case) from the preparation of SPM remained on the solid and evaporated in the humidity jars. To test this theory, it was decided to prepare SPM, show it to be solvent-free, and repeat the water uptake studies. Dichloromethane was chosen as the organic solvent for the preparation rather than toluene because its lower boiling point should allow it to be removed from the solid more easily and completely. SPM was made by stirring a slurry of SPA and one equivalent of water in dichloromethane for 2 days, then isolation by filtration and air-drying of the solid SPM.
# The remainder of the SPM sample was allowed to dry in an open jar under ambient conditions for about 1 week. It was then characterized by XRPD elemental analysis, and Karl Fischer (KF) analysis. The sample appears to be pure SPM containing very little, if any, residual solvent.
# Both SPM and SPA increased in weight about 20% when equilibrium was reached (constant weight) at each humidity utilized. The samples were analyzed by XRPD after completion of the water uptake experiments. […] The nature of this form has not been determined.
compound,measurement,setting,value
"O=C1NC(=O)C(c2ccccc2)(c2ccccc2)N1 [SPM, sodium phenytoin monohydrate]",endothermic transition temperature,"[1]; DSC, nitrogen, 10° C./minute, monohydrate",about 65 °C
same,weight loss accompanying the low-temperature endothermic transition,"[1]; TGA, transition at about 65° C.",5%
same,Percent change based on average of final two weights,[2]; 58% RH,-10%
same,Percent change based on average of final two weights,[2]; 75% RH,-10%
same,Percent change based on average of final two weights,[2]; 84% RH,-9%
same,weight lost on reaching constant weight,"[2]; all humidities utilized, ambient temperature",10%
same,sample weight,"[3]; 58% RH, day 0 (starting weight), monohydrate",1.5057 g
same,change in starting weight,"[3]; 58% RH, day 1, monohydrate",+0.0186 g
same,sample weight,"[3]; 58% RH, day 1, monohydrate",1.5243 g
same,change in starting weight,"[3]; 58% RH, day 2, monohydrate",+0.0269 g
same,sample weight,"[3]; 58% RH, day 2, monohydrate",1.5326 g
same,change in starting weight,"[3]; 58% RH, day 3, monohydrate",+0.0384 g
same,sample weight,"[3]; 58% RH, day 3, monohydrate",1.5441 g
same,change in starting weight,"[3]; 58% RH, day 4, monohydrate",+0.0510 g
same,sample weight,"[3]; 58% RH, day 4, monohydrate",1.5567 g
same,change in starting weight,"[3]; 58% RH, day 5, monohydrate",+0.0620 g
same,sample weight,"[3]; 58% RH, day 5, monohydrate",1.5677 g
same,change in starting weight,"[3]; 58% RH, day 6, monohydrate",+0.0717 g
same,sample weight,"[3]; 58% RH, day 6, monohydrate",1.5774 g
same,change in starting weight,"[3]; 58% RH, day 7, monohydrate",+0.0816 g
same,sample weight,"[3]; 58% RH, day 7, monohydrate",1.5873 g
same,change in starting weight,"[3]; 58% RH, day 8, monohydrate",+0.0940 g
same,sample weight,"[3]; 58% RH, day 8, monohydrate",1.5997 g
same,change in starting weight,"[3]; 58% RH, day 10, monohydrate",+0.1185 g
same,sample weight,"[3]; 58% RH, day 10, monohydrate",1.6242 g
same,change in starting weight,"[3]; 58% RH, day 11, monohydrate",+0.1340 g
same,sample weight,"[3]; 58% RH, day 11, monohydrate",1.6397 g
same,change in starting weight,"[3]; 58% RH, day 12, monohydrate",+0.1486 g
same,sample weight,"[3]; 58% RH, day 12, monohydrate",1.6543 g
same,change in starting weight,"[3]; 58% RH, day 13, monohydrate",+0.1555 g
same,sample weight,"[3]; 58% RH, day 13, monohydrate",1.6612 g
same,change in starting weight,"[3]; 58% RH, day 14, monohydrate",+0.1633 g
same,sample weight,"[3]; 58% RH, day 14, monohydrate",1.6690 g
same,change in starting weight,"[3]; 58% RH, day 15, monohydrate",+0.1719 g
same,sample weight,"[3]; 58% RH, day 15, monohydrate",1.6776 g
same,change in starting weight,"[3]; 58% RH, day 16, monohydrate",+0.1794 g
same,sample weight,"[3]; 58% RH, day 16, monohydrate",1.6851 g
same,change in starting weight,"[3]; 58% RH, day 17, monohydrate",+0.1860 g
same,sample weight,"[3]; 58% RH, day 17, monohydrate",1.6917 g
same,change in starting weight,"[3]; 58% RH, day 21, monohydrate",+0.2176 g
same,sample weight,"[3]; 58% RH, day 21, monohydrate",1.7233 g
same,change in starting weight,"[3]; 58% RH, day 23, monohydrate",+0.2323 g
same,sample weight,"[3]; 58% RH, day 23, monohydrate",1.7380 g
same,change in starting weight,"[3]; 58% RH, day 26, monohydrate",+0.2525 g
same,sample weight,"[3]; 58% RH, day 26, monohydrate",1.7582 g
same,change in starting weight,"[3]; 58% RH, day 35",+0.2556 g
same,sample weight,"[3]; 58% RH, day 35",1.7613 g
same,change in starting weight,"[3]; 58% RH, day 42",+0.2511 g
same,sample weight,"[3]; 58% RH, day 42",1.7568 g
same,Percent change based on average of final two weights,"[3]; 58% RH, monohydrate",+17%
same,sample weight,"[3]; 75% RH, day 0 (starting weight), monohydrate",1.5013 g
same,change in starting weight,"[3]; 75% RH, day 1, monohydrate",+0.0470 g
same,sample weight,"[3]; 75% RH, day 1, monohydrate",1.5483 g
same,change in starting weight,"[3]; 75% RH, day 2, monohydrate",+0.0930 g
same,sample weight,"[3]; 75% RH, day 2, monohydrate",1.5943 g
same,change in starting weight,"[3]; 75% RH, day 3, monohydrate",+0.1386 g
same,sample weight,"[3]; 75% RH, day 3, monohydrate",1.6399 g
same,change in starting weight,"[3]; 75% RH, day 4, monohydrate",+0.1819 g
same,sample weight,"[3]; 75% RH, day 4, monohydrate",1.6832 g
same,change in starting weight,"[3]; 75% RH, day 5, monohydrate",+0.2205 g
same,sample weight,"[3]; 75% RH, day 5, monohydrate",1.7218 g
same,change in starting weight,"[3]; 75% RH, day 6, monohydrate",+0.2552 g
same,sample weight,"[3]; 75% RH, day 6, monohydrate",1.7565 g
same,change in starting weight,"[3]; 75% RH, day 7, monohydrate",+0.2874 g
same,sample weight,"[3]; 75% RH, day 7, monohydrate",1.7887 g
same,change in starting weight,"[3]; 75% RH, day 8, monohydrate",+0.2752 g
same,sample weight,"[3]; 75% RH, day 8, monohydrate",1.7765 g
same,change in starting weight,"[3]; 75% RH, day 10, monohydrate",+0.2725 g
same,sample weight,"[3]; 75% RH, day 10, monohydrate",1.7738 g
same,change in starting weight,"[3]; 75% RH, day 11, monohydrate",+0.2768 g
same,sample weight,"[3]; 75% RH, day 11, monohydrate",1.7781 g
same,change in starting weight,"[3]; 75% RH, day 12, monohydrate",+0.1796 g
same,sample weight,"[3]; 75% RH, day 12, monohydrate",1.7809 g
same,change in starting weight,"[3]; 75% RH, day 13, monohydrate",+0.2678 g
same,sample weight,"[3]; 75% RH, day 13, monohydrate",1.7781 g
same,change in starting weight,"[3]; 75% RH, day 14, monohydrate",+0.2755 g
same,sample weight,"[3]; 75% RH, day 14, monohydrate",1.7768 g
same,change in starting weight,"[3]; 75% RH, day 15, monohydrate",+0.2755 g
same,sample weight,"[3]; 75% RH, day 15, monohydrate",1.7768 g
same,change in starting weight,"[3]; 75% RH, day 16, monohydrate",+0.2761 g
same,sample weight,"[3]; 75% RH, day 16, monohydrate",1.7774 g
same,change in starting weight,"[3]; 75% RH, day 17, monohydrate",+0.2741 g
same,sample weight,"[3]; 75% RH, day 17, monohydrate",1.7754 g
same,Percent change based on average of final two weights,"[3]; 75% RH, monohydrate",+18%
same,sample weight,"[3]; 84% RH, day 0 (starting weight), monohydrate",1.5068 g
same,change in starting weight,"[3]; 84% RH, day 1, monohydrate",+0.0595 g
same,sample weight,"[3]; 84% RH, day 1, monohydrate",1.5663 g
same,change in starting weight,"[3]; 84% RH, day 2, monohydrate",+0.1159 g
same,sample weight,"[3]; 84% RH, day 2, monohydrate",1.6227 g
same,change in starting weight,"[3]; 84% RH, day 3, monohydrate",+0.1762 g
same,sample weight,"[3]; 84% RH, day 3, monohydrate",1.6830 g
same,change in starting weight,"[3]; 84% RH, day 4, monohydrate",+0.2309 g
same,sample weight,"[3]; 84% RH, day 4, monohydrate",1.7377 g
same,change in starting weight,"[3]; 84% RH, day 5, monohydrate",+0.2801 g
same,sample weight,"[3]; 84% RH, day 5, monohydrate",1.7869 g
same,change in starting weight,"[3]; 84% RH, day 6, monohydrate",+0.2965 g
same,sample weight,"[3]; 84% RH, day 6, monohydrate",1.8033 g
same,change in starting weight,"[3]; 84% RH, day 7, monohydrate",+0.2910 g
same,sample weight,"[3]; 84% RH, day 7, monohydrate",1.7978 g
same,change in starting weight,"[3]; 84% RH, day 8, monohydrate",+0.2932 g
same,sample weight,"[3]; 84% RH, day 8, monohydrate",1.8000 g
same,change in starting weight,"[3]; 84% RH, day 10, monohydrate",+0.2997 g
same,sample weight,"[3]; 84% RH, day 10, monohydrate",1.8065 g
same,change in starting weight,"[3]; 84% RH, day 11, monohydrate",+0.3062 g
same,sample weight,"[3]; 84% RH, day 11, monohydrate",1.8130 g
same,change in starting weight,"[3]; 84% RH, day 12, monohydrate",+0.3099 g
same,sample weight,"[3]; 84% RH, day 12, monohydrate",1.8167 g
same,change in starting weight,"[3]; 84% RH, day 13, monohydrate",+0.3090 g
same,sample weight,"[3]; 84% RH, day 13, monohydrate",1.8158 g
same,change in starting weight,"[3]; 84% RH, day 14, monohydrate",+0.3055 g
same,sample weight,"[3]; 84% RH, day 14, monohydrate",1.8123 g
same,change in starting weight,"[3]; 84% RH, day 15, monohydrate",+0.2996 g
same,sample weight,"[3]; 84% RH, day 15, monohydrate",1.8064 g
same,change in starting weight,"[3]; 84% RH, day 16, monohydrate",+0.2961 g
same,sample weight,"[3]; 84% RH, day 16, monohydrate",1.8029 g
same,change in starting weight,"[3]; 84% RH, day 17, monohydrate",+0.2916 g
same,sample weight,"[3]; 84% RH, day 17, monohydrate",1.7984 g
same,Percent change based on average of final two weights,"[3]; 84% RH, monohydrate",+20%
same,crystal form after completion of water uptake experiments (XRPD),[3]; each humidity utilized,another hydrated crystal form was produced
same,increase in weight at equilibrium (constant weight),[3]; each humidity utilized,about 20%
